Test results: ChEMBL document CHEMBL1126366, “Design & synthesis of a novel EPSP synthase inhibitor based on its ternary complex with shikimate-3-phosphate and glyphosate” (Bioorg Med Chem Lett, 1992)

Legend:
[1] = target: T1, 3-phosphoshikimate 1-carboxyvinyltransferase (Escherichia coli K-12, UniProt P0A6D3); assay: Potency against EPSP synthase
T1 sequence (P0A6D3 whole entry): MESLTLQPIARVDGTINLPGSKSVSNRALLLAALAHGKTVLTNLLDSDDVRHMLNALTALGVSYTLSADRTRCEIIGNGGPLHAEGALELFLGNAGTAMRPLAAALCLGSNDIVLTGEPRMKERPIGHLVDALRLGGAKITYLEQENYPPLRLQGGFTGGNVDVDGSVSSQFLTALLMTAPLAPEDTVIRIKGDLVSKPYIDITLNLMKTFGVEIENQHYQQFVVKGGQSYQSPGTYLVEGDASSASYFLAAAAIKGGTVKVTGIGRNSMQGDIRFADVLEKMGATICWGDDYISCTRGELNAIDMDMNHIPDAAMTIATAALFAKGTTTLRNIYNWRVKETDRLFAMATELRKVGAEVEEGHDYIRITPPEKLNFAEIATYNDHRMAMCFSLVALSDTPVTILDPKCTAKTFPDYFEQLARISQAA

[2] = target: T1, 3-phosphoshikimate 1-carboxyvinyltransferase; assay: Dissociation constant against EPSP synthase
[3] = target: T1, 3-phosphoshikimate 1-carboxyvinyltransferase; assay: Inhibition of EPSP synthase PEP-Pi site by the compound was expressed as apparent value
[4] = target: T1, 3-phosphoshikimate 1-carboxyvinyltransferase; assay: Inhibition of the EPSP synthase PEP-Pi site by the compound expressed as apparent value
[5] = target: T1, 3-phosphoshikimate 1-carboxyvinyltransferase; assay: Dissociation constant of the at EPSP synthase was determined
[6] = target: T1, 3-phosphoshikimate 1-carboxyvinyltransferase; assay: Inhibition of the EPSP synthase by the compound expressed as weak apparent value

Structure (SMILES) | Ki [1] | Kd [2] | Ki [3] | Ki [4] | Kd [5] | Ki [6]
C[C@@](O[C@@H]1CC(C(=O)O)=C[C@@H](OP(=O)(O)O)[C@H]1O)(C(=O)O)P(=O)(O)O | 0.015 µM | 0.015 µM | 0.00011 µM | – | – | –
N[C@@H]1CC(C(=O)O)=C[C@@H](OP(=O)(O)O)[C@H]1O | 85 µM | – | – | – | – | –
O=C(O)CN(CP(=O)(O)O)[C@@H]1CC(C(=O)O)=C[C@@H](OP(=O)(O)O)[C@H]1O | – | – | – | 13 µM | 8 µM | 7.4 µM
